From US20220119446A1, “BIOMARKERS AND TREATMENT OF NEURONAL INJURY AND NEURODEGENERATION” (Board of Supervisons of Louisiana State University and …, priority 2018, published 2022)
“Also recorded” adds a separate entry of the source. * marks the point of attachment. Boc = CC(C)(C)OC(=O)*

Assays:
[1] = system: rats subjected to MCAo; assay: Transient middle cerebral artery occlusion (MCAo): behavioral tests, neurological score; assay type: in vivo, rat; settings: for neuronal damage / neuroprotection in stroke model (tissue and behavioral): rat MCAo, summary statements
Excerpt: In certain embodiments, Male Sprague-Dawley rats (290-320 g; Charles River Lab, Wilmington, Mass., USA) are used for in vivo studies. For all surgical procedures, animals can be fasted and anesthesia can be induced with 3.5% isoflurane and 70% nitrous oxide and 30% oxygen. Animals can be orotracheally intubated; given atropine for secretions, pancuronium for immobilization; ventilated mechanically on a humidified mixture of 70% nitrous oxide, 1.0-1.5% isoflurane and a balance of oxygen. A femoral artery and vein can be catheterized for continuous blood pressure monitoring and periodic blood sampling for arterial gases and pH. PCO2 can be maintained at 35-40 mm Hg and P02 at 105-120 mm Hg by ventilator adjustments. Rectal temperature can be measured with a thermistor and maintained with a heating lamp at 37.0-37.5° C. Cranial (temporalis muscle) temperature also can be monitored and regulated with a separate warming lamp at 36.2-36.7° C.
The right MCA can be occluded for 2 h by intraluminal filament, as described previously (Belayev et al. 2011). Briefly, the right common carotid artery (CCA) and external carotid artery (ECA) can be exposed through midline neck incision, and then completely isolated from the surrounding nerves. The occipital branches of the ECA and pterygopalatine artery can be ligated. A 4-cm of 3-0 nylon filament, coated with poly-L-lysine can be advanced to the origin of MCA through the proximal ECA via internal carotid artery. The filament can be inserted 20 to 22 mm from the bifurcation of the CCA, according to the animal's body weight. The neck incision can then be closed, and the rats can be returned to their cages. […]
In certain embodiments, behavioral tests are conducted before, during MCAo (at 60 min), and then at 24 h, 48 h, 72 h, or 7 days after MCAo by an investigator blinded to the experimental groups. […] In embodiments, the severity of stroke injury is assessed by behavioral examination of each rat at 60 min after onset of MCAo. […]

[2] = system: Wnt5a; assay: Western blot of secreted (sWnt5a) and cellular (cWnt5a) Wnt5a in RPE cells under UOS; assay type: cell-based, human
Procedure: To monitor transcription, translation, and secretion of Wnt5a, we performed western blot assays using cellular lysates and medium from hpRPE undergoing UOS+/−NPD1 at different time points. Medium was precipitated using Methanol/Chloroform to bring down all secreted Wnt5a.
The pellet can be re-suspended and denatured in 100 μl of 2× Laemmli sample buffer (Bio-Rad Laboratories, Hercules, Calif.) at 95° C. for 5 min. MCAo brain tissue and cell samples can be homogenized using RIPA (Thermo Fisher Scientific, Waltham, Mass.) buffer supplemented with protease and phosphatase inhibitor cocktails (Millipore Sigma, Burlington, Mass.). In embodiments, the amount of 30 μg of total protein is loaded in NuPAGE® Novex® 4-12% Bis-Tris precast gels (Life Technologies Corporation, Carlsbad, Calif.) and run at constant 120V for about 1 hour and 20 min. Proteins can be transferred to μm Nitrocellulose membrane using Bio-Rad Trans-Blot® Turbo™ System (Bio-Rad Laboratories, Hercules, Calif.). ECL™ Plex Fluorescent Rainbow Markers (GE Healthcare, Chicago, Ill.) can be used as the ladder for protein's molecular weight. Membranes can be blocked using 5% non-fat dry milk (Bio-Rad Laboratories, Hercules, Calif.) in TBS with 1% Tween® 20 (TBST-10×) (Croda International, Snaith, United Kingdom) for 1 hour and incubated overnight with primary antibodies. Anti-mouse or anti-rabbit secondary antibodies conjugated with Cy3 or Cy5 can be used to visualize the protein of interest. Immunoblots can be documented using LAS 4000 imaging system (GE Healthcare Life Sciences, Marlborough, Mass.). A time course exposition can be produced in each case to prevent quantification of saturated images. In embodiments, densitometry data are obtained using ImageQuant™ TL software (GE Healthcare Life Sciences, Marlborough, Mass.).
The pellet was re-suspended and denatured in 100 μl of 2× Laemmli sample buffer (Bio-Rad Laboratories) at 95° C. for 5 min. MCAo brain tissue and cell samples were homogenized using RIPA (Thermo Fisher Scientific) buffer supplemented with protease and phosphatase inhibitor cocktails (Sigma). The amount of 30 μg of total protein was loaded in NuPAGE® Novex® 4-12% Bis-Tris precast gels (Life Technologies Corporation) or Mini-PROTEAN TGX Stain free gels 4-15% and ran at constant 120V for 1 hour and 20 min or 250 V for 40 min respectively. Proteins were transferred to μm Nitrocellulose or LF-PVDF membrane using Bio-Rad Trans-Blot® Turbo™ System (Bio-Rad Laboratories). ECL™ Plex Fluorescent Rainbow Markers (GE Healthcare) were used as the ladder for protein's molecular weight. […] A time course exposition was produced in each case to prevent quantification of saturated images. […]

| Compound | neuronal damage / neuroprotection in stroke model (tissue and behavioral) [1] | neuronal damage / neuroprotection in stroke model (tissue and behavioral) ([1]; listed as BOX5) | neurological score (total, tactile and proprioceptive placing) ([1]; rat, 2 h MCAo, IV 1 h later, DHA 5 mg/kg or Box5 (1 mg/kg; 400 μg), days 1, 2, 3, 7, versus saline) | secreted Wnt5a (sWnt5a) in medium ([2]; ARPE-19 cells, 600 μM H2O2 and 10 ng/ml TNFα, 6 hours, 100 nM NPD1) | secreted Wnt5a (sWnt5a) in medium ([2]; hpRPE cells under UOS, Pitstop2 added 2 hours before harvesting) |
| --- | --- | --- | --- | --- | --- |
| t-Boc-NH-Met-Asp-Gly-Cys-Glu-Leu-CO2H (Boc-MDGCEL-OH) [Box5] | significantly decreased; also recorded: beneficious at the behavioral level as well as in the reduction of stroke damage; also recorded: protection at the neurological/behavioral level as well as by reduction of stroke damage | remarkable neuroprotection | remarkable similarity to that obtained by DHA treatment; also recorded: improvement in neurological score; also recorded: resembling DHA treatment; also recorded: neurological protection remarkable similar to that obtained by DHA treatment |  |  |
| CC/C=C\C[C@H](O)\C=C/C=C/C=C/[C@H](O)C/C=C\C/C=C\CCC(=O)O [NPD1, 10R,17S-dihydroxy-docosa-4Z,7Z,11E,13E,15Z,19Z-hexaenoic acid] |  |  |  | disappeared; also recorded: decreases band intensity close to control levels | decreased Wnt5a in the medium; also recorded: decreased media sWnt5a; also recorded: decreases soluble Wnt5a |
